The text below walks through data of PubChem BioAssay AID1259407 (Chemical Carcinogenesis Research Information System (CCRIS), 2018).

Active and inactive are the calls of the source. How the calls were made is not given here.

The data set has as its system CCRIS mutagenicity, Ames/micronucleus/aberration tests. The data set is described as follows: CCRIS mutagenicity studies.
Where [1] appears, read: Test System: AMES SALMONELLA TYPHIMURIUM, Strain/Indicator: TA98, Metabolic Activation: NONE, Method: STANDARD PLATE.
Setting [2] is: Test System: AMES SALMONELLA TYPHIMURIUM, Strain/Indicator: TA98, Metabolic Activation: RAT, LIVER, S-9, AROCLOR 1254, Method: STANDARD PLATE.
Setting [3] is: Test System: AMES SALMONELLA TYPHIMURIUM, Strain/Indicator: TA100, Metabolic Activation: NONE, Method: STANDARD PLATE.

`O=NN1CN(N=O)CN(N=O)C1`: the mutagenic call reads like this: (Test System: Ames Salmonella typhimurium, Strain/Indicator: TA97a, Metabolic Activation: None, Method: Preincubation) “inactive; negative”; (Test System: Ames Salmonella typhimurium, Strain/Indicator: TA97a, Metabolic Activation: Rat, Liver, S-9, Aroclor 1254, Method: Preincubation) “active; positive”; (Test System: Ames Salmonella typhimurium, Strain/Indicator: TA98, Metabolic Activation: Rat, Liver, S-9, Aroclor 1254, Method: Preincubation) “inactive; negative”; (Test System: Ames Salmonella typhimurium, Strain/Indicator: TA100, Metabolic Activation: Rat, Liver, S-9, Aroclor 1254, Method: Preincubation) “inactive; negative”; (Test System: Ames Salmonella typhimurium, Strain/Indicator: TA102, Metabolic Activation: Rat, Liver, S-9, Aroclor 1254, Method: Preincubation) “active; positive”.

Turning to `CC(C)C[C@@H]1NC(=O)CNC1=O`, the mutagenic call was “inactive; negative” under setting [1]; “inactive; negative” under setting [2]; “inactive; negative” under setting [3]; “inactive; negative” (Test System: AMES SALMONELLA TYPHIMURIUM, Strain/Indicator: TA100, Metabolic Activation: RAT, LIVER, S-9, AROCLOR 1254, Method: STANDARD PLATE); “inactive; negative” (Test System: AMES SALMONELLA TYPHIMURIUM, Strain/Indicator: TA1535, Metabolic Activation: NONE, Method: STANDARD PLATE); “inactive; negative” (Test System: AMES SALMONELLA TYPHIMURIUM, Strain/Indicator: TA1535, Metabolic Activation: RAT, LIVER, S-9, AROCLOR 1254, Method: STANDARD PLATE). The mutagenic call by setting is: (Test System: AMES SALMONELLA TYPHIMURIUM, Strain/Indicator: TA1537, Metabolic Activation: NONE, Method: STANDARD PLATE) “inactive; negative”; (Test System: AMES SALMONELLA TYPHIMURIUM, Strain/Indicator: TA1537, Metabolic Activation: RAT, LIVER, S-9, AROCLOR 1254, Method: STANDARD PLATE) “inactive; negative”.

For `CN(N)c1ccn([C@@H]2O[C@H](CO)[C@@H](O)[C@H]2O)c(=O)n1`, the mutagenic call (Test System: CHINESE HAMSTER V-79, Strain/Indicator: V-79/6-THIOGUANINE, Metabolic Activation: NONE, Method: REPLATING) is “inactive; negative”.

In the case of `CC(Br)C(=O)NCc1ccccc1` (configuration not stated), the mutagenic call was “active; positive” (Test System: AMES SALMONELLA TYPHIMURIUM, Strain/Indicator: TA100, Metabolic Activation: MOUSE, LIVER, S-9, AROCLOR 1254, Method: STANDARD PLATE) and “active; positive” under setting [3].

With `C[C@@H]1Cc2ccc(C(=O)N[C@@H](Cc3ccccc3)C(=O)O)c(O)c2C(=O)O1`, the mutagenic call is “inactive; negative” (End Point: IN VIVO CHROMOSOMAL ABERRATIONS, Test System: SPLENOCYTES, Species: RAT, Strain/Sex: FISCHER 344/MALE, Route: ORAL (GAVAGE)); “inactive; negative” (Test System: AMES SALMONELLA TYPHIMURIUM, Strain/Indicator: TA102, Metabolic Activation: NONE, Method: STANDARD PLATE); “inactive; negative” (Test System: AMES SALMONELLA TYPHIMURIUM, Strain/Indicator: TA102, Metabolic Activation: RAT, LIVER, S-9, AROCLOR 1254, Method: STANDARD PLATE).

`Cc1ccc(NC(=O)N(C)C)cc1Cl`: the mutagenic call (Test System: AMES SALMONELLA TYPHIMURIUM, Strain/Indicator: TA98, Metabolic Activation: IMMATURE CARP LIVER S-9, 3-METHYLCHOLANTHRENE, Method: STANDARD PLATE) is “inactive; negative”; the mutagenic call under setting [1] is “inactive; negative”; the mutagenic call (Test System: AMES SALMONELLA TYPHIMURIUM, Strain/Indicator: TA100, Metabolic Activation: IMMATURE CARP LIVER S-9, 3-METHYLCHOLANTHRENE, Method: STANDARD PLATE) is “inactive; negative”; the mutagenic call under setting [3] is “inactive; negative”.

Regarding `Cc1ccc(N=Nc2c(O)c(C(=O)O)cc3ccccc23)c(S(=O)(=O)O)c1`, the mutagenic call by setting is: under setting [1], “inactive; negative”; (Test System: AMES SALMONELLA TYPHIMURIUM, Strain/Indicator: TA98, Metabolic Activation: RAT LIVER S-9, AROCLOR 1254, Method: STANDARD PLATE) “inactive; negative”; under setting [3], “inactive; negative”; (Test System: AMES SALMONELLA TYPHIMURIUM, Strain/Indicator: TA100, Metabolic Activation: RAT LIVER S-9, AROCLOR 1254, Method: STANDARD PLATE) “inactive; negative”.

Turning to `c1cc2ccc3cc4occc4c4ccc(c1)c2c34`, the mutagenic call is, setting by setting: under setting [1], “inactive; negative”; under setting [2], “active; positive”.

As for `CC(=O)Nc1ccc(-c2ccc(N)cc2)cc1`, the mutagenic call by setting is: (Test System: AMES SALMONELLA TYPHIMURIUM, Strain/Indicator: TA1538, Metabolic Activation: GUINEA PIG, LIVER, HEPATOCYTES, Method: PREINCUBATION) “active; positive”; (Test System: AMES SALMONELLA TYPHIMURIUM, Strain/Indicator: TA1538, Metabolic Activation: GUINEA PIG, LIVER, S-9, ACETYL-COA (0.1 OR 1 MILLIMOLAR), Method: PREINCUBATION) “active; positive”; (Test System: AMES SALMONELLA TYPHIMURIUM, Strain/Indicator: TA1538, Metabolic Activation: GUINEA PIG, LIVER, S-9, Method: PREINCUBATION) “active; positive”; (Test System: AMES SALMONELLA TYPHIMURIUM, Strain/Indicator: TA1538, Metabolic Activation: HAMSTER, LIVER, HEPATOCYTES, Method: PREINCUBATION) “active; positive”; (Test System: AMES SALMONELLA TYPHIMURIUM, Strain/Indicator: TA1538, Metabolic Activation: HAMSTER, LIVER, S-9, ACETYL-COA (0.1 OR 1 MILLIMOLAR), Method: PREINCUBATION) “active; positive”; (Test System: AMES SALMONELLA TYPHIMURIUM, Strain/Indicator: TA1538, Metabolic Activation: HAMSTER, LIVER, S-9, Method: PREINCUBATION) “active; positive”. In addition, the mutagenic call is, setting by setting: (Test System: AMES SALMONELLA TYPHIMURIUM, Strain/Indicator: TA1538, Metabolic Activation: RAT, LIVER, HEPATOCYTES, Method: PREINCUBATION) “active; positive”; (Test System: AMES SALMONELLA TYPHIMURIUM, Strain/Indicator: TA1538, Metabolic Activation: RAT, LIVER, S-9, ACETYL-COA (0.1 OR 1 MILLIMOLAR), Method: PREINCUBATION) “active; positive”; (Test System: AMES SALMONELLA TYPHIMURIUM, Strain/Indicator: TA1538, Metabolic Activation: RAT, LIVER, S-9, Method: PREINCUBATION) “active; positive”; (Test System: Ames Salmonella typhimurium, Strain/Indicator: TA102, Metabolic Activation: None, Method: Preincubation) “inactive; negative”; (Test System: Ames Salmonella typhimurium, Strain/Indicator: TA102, Metabolic Activation: Rat, liver, S-9, Aroclor 1254, 4%, Method: Preincubation) “active; positive”.

Regarding `CC1(C)[C@H](C(=O)O[C@H](C#N)c2cccc(Oc3ccccc3)c2)[C@@H]1C(Br)C(Br)(Br)Br` (some centres not stated), the mutagenic call is “inactive; negative” (End Point: In vivo chromosomal aberrations, Test System: Bone marrow cells, Species: Rat, Strain/Sex: Sprague Dawley CD, Route: Gavage); “inactive; negative (precipitation above 100 ug/plate)” (Test System: Ames Salmonella typhimurium, Strain/Indicator: TA98, Metabolic Activation: None); “inactive; negative (precipitation above 100 ug/plate)” (Test System: Ames Salmonella typhimurium, Strain/Indicator: TA98, Metabolic Activation: Rat, Liver, S-9, Aroclor 1254); “inactive; negative (precipitation above 100 ug/plate)” (Test System: Ames Salmonella typhimurium, Strain/Indicator: TA100, Metabolic Activation: None); “inactive; negative (precipitation above 100 ug/plate)” (Test System: Ames Salmonella typhimurium, Strain/Indicator: TA100, Metabolic Activation: Rat, Liver, S-9, Aroclor 1254); “inactive; negative (precipitation above 100 ug/plate)” (Test System: Ames Salmonella typhimurium, Strain/Indicator: TA1535, Metabolic Activation: None). For the same compound, the mutagenic call is, setting by setting: (Test System: Ames Salmonella typhimurium, Strain/Indicator: TA1535, Metabolic Activation: Rat, Liver, S-9, Aroclor 1254) “inactive; negative (precipitation above 100 ug/plate)”; (Test System: Ames Salmonella typhimurium, Strain/Indicator: TA1537, Metabolic Activation: None) “inactive; negative (precipitation above 100 ug/plate)”; (Test System: Ames Salmonella typhimurium, Strain/Indicator: TA1537, Metabolic Activation: Rat, Liver, S-9, Aroclor 1254) “inactive; negative (precipitation above 100 ug/plate)”; (Test System: Ames Salmonella typhimurium, Strain/Indicator: TA1538, Metabolic Activation: None) “inactive; negative (precipitation above 100 ug/plate)”; (Test System: Ames Salmonella typhimurium, Strain/Indicator: TA1538, Metabolic Activation: Rat, Liver, S-9, Aroclor 1254) “inactive; negative (precipitation above 100 ug/plate)”.

`Fc1ccc(CN2C3c4ccccc4-c4ccccc4C32)cc1` (configuration not stated): the mutagenic call under setting [3] was “active; positive”.
